US8217000B2, “Method for elevating prolactin in mammals” (Cara Therapeutics, Inc., priority 2006, dated 2012)
Where a name gives a salt, the structure may show the parent alone. Read-outs that look alike come from different tables or passages of the source. Non-standard residues stand in square brackets, D forms with d. Residues, ends and D or L forms follow the SMILES beside them. *: point of attachment. NH(4-picolyl) = c1cc(CN*)ccn1; dNle = CCCC[C@@H](N)C(=O)O

Key:
[1] = Urinary excretion of CR665 after single IV infusion in human subjects; format: in vivo; details: for CL renal / dose excreted: human; for CL renal: urine and plasma, read-out: CLR 0-24 h; for dose excreted / Ae0-24 h: urine; for dose excreted: iv
Procedure: The lower limit of quantification was 1 ng/mL.
Urine was collected into standard weight polyethylene containers over the following time intervals: Pre dose (−24 to 0), 0 to 4, 4 to 8, 8 to 12, 12 to 24 and 24 to 48 hours after the start of the infusion. During each collection period, the containers were stored in a refrigerator at 2 to 8° C. The weight (g) of each collection was recorded prior to removal of two sub samples (each approximately 4 mL) into suitably labeled polypropylene containers, which were stored within 2 hours of collection, at approximately −20° C. Additional aliquots (1×100 mL per collection period) were stored for possible future analyses. Any remaining urine from post dose collection intervals was pooled with the rest of the urine collected during the 0 to 24 hour collection period, for analysis of creatinine clearance. A nominal value for specific gravity of 1.018 was used to calculate urine volume.

[2] = Safety and tolerability of ascending single IV doses in human subjects; format: in vivo
Excerpt: In each group, subjects received CR665 or placebo.
The condition of each subject was monitored throughout the study.
Subjects were also encouraged to spontaneously report adverse events occurring at any other time during the study. Any adverse events and remedial action required were to be recorded for each subject. The nature, time of onset, duration and severity were documented, together with the Project Physician's opinion of the relationship to drug administration.
The condition of the dosing cannula site for each subject was monitored for erythema, pruritus and swelling at the following times: Pre dose, 0.5, 1, 2 and 24 hours after the start of the infusion. Subjects were also encouraged to spontaneously report adverse events relating to the infusion site at any other time during the study. Any adverse events and observations relating to the infusion site and remedial action required were to be recorded for each subject. The nature, time of onset, duration, and severity were to be documented, together with the Project Physician's opinion of the relationship to drug administration.
Supine and standing blood pressure, supine pulse rate and oral body temperature were measured in duplicate at the following times: Day 1; Pre dose, 15 minutes (Part B only), 30 minutes, 55 minutes, 1.5, 2, 2.5, 3, 4, 8, 12, 24 and 48 hours after the start of the infusion (up to 24 hours only for Groups A1 to A4); and at Follow up visit. Supine vital signs only were measured during the infusion period. Pre dose blood pressure and pulse rate were measured in triplicate at approximately 2 minute intervals. The median value was used as the baseline value in the data analysis. All subsequent measurements were performed singly, but repeated in duplicate if outside the relevant clinical reference ranges. If repeated, the median of the three values were used in the data analysis. Blood pressure and pulse rate were measured using automated Critikon Dinamap™ PRO 400 monitors. Subjects were required to be supine for at least 5 minutes before blood pressure and pulse rate measurements. Standing blood pressure and pulse rate were then measured singly after the subject had been sitting for approximately 1 minute and then standing for approximately 2 minutes. Oral body temperature was measured singly using an Omron digital thermometer. To assess drug effects on cardiovascular function, a 12 lead resting ECG with a 10 second rhythm strip was recorded on a Marquette MAC5000 ECG machine at the following times, after the subject has been supine for at least 5 minutes: Day 1; Pre dose, 50 minutes, 2, 4, 8, 24 and 48 hours after the start of the infusion (up to 24 hours only for Groups A1 to A4); and at the follow up visit. The ECG machine computed the PR, QT and QTc intervals, QRS duration, and heart rate. The QT interval was corrected for heart rate (QTc) using Bazett's formula. For continuous ECG measurements, continuous cardiac Holter monitoring of each subject, using Reynolds Tracker II Holter monitors, was performed from 1 hour prior to until 4 hours after the start of the infusion. Blood and urine samples were collected, after at least a 6 hour fast, for clinical laboratory evaluations at the following times during the study: Pre dose and 24 hours after the start of the infusion; and at the follow up visit.
After collection of urine samples, following removal of the aliquots for drug assay and/or urinalysis, urine was pooled over the following time intervals: 24 to 0 hours and 0 to 24 hours after the start of the infusion. A 10 mL aliquot was removed from the each pooled collection for determination of urinary creatinine.
An assessment of fluid balance (made by comparison of volume of fluid consumed and volume of fluid excreted) was made over the following periods: 24 to 0 hours and 0 to 24 hours after the start of the infusion. During these periods, the volume of fluid consumed and the volume of urine excreted was recorded. […]

Question: With `CCCC[C@@H](NC(=O)[C@@H](Cc1ccccc1)NC(=O)[C@H](N)Cc1ccccc1)C(=O)N[C@H](CCCNC(=N)N)C(=O)NCc1ccncc1` [CR665, D-phenylalanyl-D-phenylalanyl-D-norleucyl-N-(4-pyridinylmethyl)-D-argininamide, acetate salt] (H-[dF][dF][dNle][dR]-{NH(4-picolyl)}) as the compound, how does the CL renal ([1]; female, females, 0.06 mg/kg, 5-minute IV infusion, geometric mean) read?
Answer: 20.9 mL/min

Question: And the CL renal ([1]; female, females, 0.24 mg/kg, 1 hour IV infusion, geometric mean)?
Answer: 16.8 mL/min

Question: And the dose excreted ([1]; female, 0.06 mg/kg, females, 0.06 mg/kg, 5-minute IV infusion, geometric mean, read-out: fe0-24 h)?
Answer: 3.83%

Question: What about the dose excreted ([1]; female, 0.06 mg/kg, females, 5-minute infusion, read-out: Fraction of unchanged drug excreted in the urine) of the same compound?
Answer: 3.8%

Question: What about the dose excreted ([1]; female, 0.06 mg/kg, females, 5-minute infusion, read-out: fe0-24 h, geometric least squares mean) of the same compound?
Answer: 3.83%

Question: What about the dose excreted ([1]; female, 0.24 mg/kg, females, 0.24 mg/kg, 1 hour IV infusion, geometric mean, read-out: fe0-24 h) of the same compound?
Answer: 3.02%

Question: And the dose excreted ([1]; female, 0.24 mg/kg, females, 1-hour infusion, read-out: fe0-24 h, geometric least squares mean)?
Answer: 2.7%

Question: And the “fe0-24 h, ratio of geometric least squares means 5-minute:1-hour” value ([1]; females)?
Answer: 1.42

Question: What about the Ae0-24 h ([1]; females, 0.06 mg/kg, 5-minute IV infusion, geometric mean) of the same compound?
Answer: 153 µg

Question: What about the Ae0-24 h ([1]; females, 0.24 mg/kg, 1 hour IV infusion, geometric mean) of the same compound?
Answer: 446 µg

Question: What about the CL renal ([1]; male, males, 0.03 mg/kg, 5-minute IV infusion, geometric mean) of the same compound?
Answer: 17.1 mL/min

Question: What about the CL renal ([1]; male, males, 0.06 mg/kg, 5-minute IV infusion, geometric mean) of the same compound?
Answer: 18.4 mL/min

Question: What about the CL renal ([1]; male, males, 0.09 mg/kg, 5-minute IV infusion, geometric mean) of the same compound?
Answer: 20.5 mL/min

Question: What about the CL renal ([1]; male, males, 0.24 mg/kg, 1 hour IV infusion, geometric mean) of the same compound?
Answer: 22 mL/min

Question: What about the dose excreted ([1]; male, 0.03 mg/kg, males, 0.03 mg/kg, 5-minute IV infusion, geometric mean, read-out: fe0-24 h) of the same compound?
Answer: 3.6%

Question: And the dose excreted ([1]; male, 0.06 mg/kg, males, 0.06 mg/kg, 5-minute IV infusion, geometric mean, read-out: fe0-24 h)?
Answer: 3.33%

Question: What about the dose excreted ([1]; male, 0.09 mg/kg, males, 0.09 mg/kg, 5-minute IV infusion, geometric mean, read-out: fe0-24 h) of the same compound?
Answer: 3.56%

Question: And the dose excreted ([1]; male, 0.24 mg/kg, males, 0.24 mg/kg, 1 hour IV infusion, geometric mean, read-out: fe0-24 h)?
Answer: 3.5%

Question: What about the dose excreted ([1]; male, males, 1-hour infusion, Parts A & B, read-out: fe0-24 h, geometric least squares mean) of the same compound?
Answer: 3.46%

Question: And the dose excreted ([1]; male, males, 5-minute infusion, Parts A & B, read-out: fe0-24 h, geometric least squares mean)?
Answer: 3.48%

Question: What about the dose excreted ([1]; male, males, all dose levels, 5-minute infusion, up to 24 hours post-dose, read-out: Fraction of the dose excreted in the urine as unchanged drug) of the same compound?
Answer: ~3.5%

Question: And the “fe0-24 h, ratio of geometric least squares means 5-minute:1-hour” value ([1]; males)?
Answer: 1.01

Question: What about the Ae0-24 h ([1]; males, 0.03 mg/kg, 5-minute IV infusion, geometric mean) of the same compound?
Answer: 70.0 µg

Question: What about the Ae0-24 h ([1]; males, 0.06 mg/kg, 5-minute IV infusion, geometric mean) of the same compound?
Answer: 157 µg

Question: What about the Ae0-24 h ([1]; males, 0.09 mg/kg, 5-minute IV infusion, geometric mean) of the same compound?
Answer: 262 µg

Question: And the Ae0-24 h ([1]; males, 0.24 mg/kg, 1 hour IV infusion, geometric mean)?
Answer: 631 µg

Question: And the “Fluid balance (urine excreted-fluid consumed)” value ([2]; 0 to 24 hour after start of infusion)?
Answer: no apparent treatment or dose related trends

Question: What about the “12-lead ECG evaluations” value ([2]; Parts A and B) of the same compound?
Answer: no treatment related trends, significant clinical changes, or abnormalities in the morphology of the 12 lead ECG

Question: What about the “Creatinine clearance estimated from serum creatinine” value ([2]; Parts A and B) of the same compound?
Answer: no clinically important changes

Question: What about the “Supine and standing blood pressure, pulse rate, oral body temperature” value ([2]; Parts A and B) of the same compound?
Answer: no treatment or dose related trends

Question: What about the “Severe or serious adverse events” value ([2]; all 54 subjects, all dose levels) of the same compound?
Answer: no severe or serious adverse events

Question: And the “QTc interval (Bazett's and Friedericia's corrected)” value ([2]; each dose level, male and female subjects)?
Answer: no evidence of prolongation of QTc interval

Question: And the “CNS symptoms (hallucinations or dysphoria)” value ([2]; even at the highest dose levels)?
Answer: no signs of the more typical CNS symptoms

Question: What about the “Volume of urine excreted compared to placebo” value ([2]; first 4 hours after start of infusion, each dose level, male and female, Parts A and B) of the same compound?
Answer: increase

Question: And the “Clinical laboratory evaluations (serum biochemistry, hematology, urinalysis)” value ([2]; human, in vivo)?
Answer: no treatment related trends or significant clinical findings

Question: What about the Physical examination ([2]; human, in vivo) of the same compound?
Answer: no treatment related findings
